Measured values reported in ChEMBL document CHEMBL2390874, “Synthesis, antibacterial activity and cytotoxicity of new fused pyrazolo[1,5-a]pyrimidine and pyrazolo[5,1-c][1,2,4]triazine derivatives from new 5-aminopyrazoles” (Eur J Med Chem, 2013).
Calls of active or inactive are those of the source.

Experiments:
Assay type in all cases: functional, organism-based
Salmonella typhimurium = experiment: Antibacterial activity against Salmonella typhimurium ATCC 51812 assessed as growth inhibition at 1 mg/ml after 24 hrs by agar diffusion method; details: Salmonella enterica subsp. enterica serovar Typhimurium
Enterococcus faecalis = experiment: Antibacterial activity against Enterococcus faecalis ATCC 14506 assessed as growth inhibition at 1 mg/ml after 24 hrs by agar diffusion method
[1] = test system: Staphylococcus epidermidis; experiment: Antibacterial activity against Staphylococcus epidermidis ATCC 12228 assessed as growth inhibition at 1 mg/ml after 24 hrs by agar diffusion method
Staphylococcus aureus = experiment: Antibacterial activity against methicillin-resistant Staphylococcus aureus ATCC 43300 assessed as growth inhibition at 1 mg/ml after 24 hrs by agar diffusion method

Measured: growth inhibition (GI)

CSc1c(C#N)c(N)nc2c(C#N)c(N3CCOCC3)nn12
inactive: all assays above

CC(=O)c1nnc2c(C#N)c(N3CCCC3)nn2c1C
inactive: all assays above

CC(=O)n1nc(N2CCOCC2)c(C#N)c1N
inactive: all assays above

N#Cc1c(N)nc2c(C#N)c(N3CCOCC3)nn2c1N1CCCCC1
inactive: all assays above

N#Cc1c(N)nc2c(C#N)c(N3CCCC3)nn2c1N1CCCCC1
inactive: all assays above

N#Cc1c(N)nc2c(C#N)c(N3CCCC3)nn2c1N1CCOCC1
inactive: all assays above

Cc1cc(O)n2nc(N3CCCCC3)c(C#N)c2n1
inactive: all assays above

N#Cc1nnc2c(C#N)c(N3CCCC3)nn2c1N
inactive: all assays above

Cc1cc(C)n2nc(N3CCOCC3)c(C#N)c2n1
inactive: all assays above

N#Cc1nnc2c(C#N)c(N3CCOCC3)nn2c1N
inactive: all assays above

N#Cc1c(N)nc2c(C#N)c(N3CCOCC3)nn2c1N1CCOCC1
inactive: all assays above

CSc1c(C#N)c(N)nc2c(C#N)c(N3CCCC3)nn12
inactive: all assays above

CC(=O)c1nnc2c(C#N)c(N3CCOCC3)nn2c1C
inactive: all assays above

Cc1cc(C)n2nc(N3CCCC3)c(C#N)c2n1
inactive: all assays above

Cc1cc(O)n2nc(N3CCCC3)c(C#N)c2n1
inactive: all assays above
